The results in this text go back to EP0495432A1, “Hexa-cyclic compound” (DAIICHI PHARMACEUTICAL CO., LTD., priority 1991, dated 1992).

The first test deals with P388 murine leukemia cells. Description: Cytotoxicity against P388 murine leukemia cells (MTT assay). The format is cell-based. Conditions: Mus musculus, P388, P388 cells 2.5x10³ per well, sample added after 24 hours, cultivated 3 days at 37°C, 5% CO₂, absorption at 540 nm, read-out: IC₅₀. The procedure:
P388 murine leukemia cells were spread over a 96-well microplate, 2.5x10³ cells per well. A sample to be tested was added after 24 hours. Cells were cultivated under the conditions of 5% CO₂ at 37°C for 3 days. 3-(4,5-Dimethylthiazol-2-yl)-2,5-diphenyl-2H-tetrazolium bromide (MTT) was added 4 hours after the addition of the sample. Upon the addition of 200 µl/ml of isopropyl alcohol containing 0.04 N HCl the absorption at 540 nm was measured to determine IC₅₀.
A general note: Formazan colour is commonly taken as a measure of viable cells.
In the case of `CC[C@@]1(O)C(=O)OCc2c1cc1n(c2=O)Cc2c-1nc1ccc(OC)c3c1c2CCC3N.Cl` (single isomer, unassigned) [Example 7 (Isomer A)], the IC50 stood at 0.0114 µg/mL.

The test is the same for the next values; noted with them: P388 cells 2.5x10³ per well, sample added after 24 hours, cultivated 3 days at 37°C, 5% CO₂, absorption at 540 nm, hydrochloride.
Compound `CC[C@@]1(O)C(=O)OCc2c1cc1n(c2=O)Cc2c-1nc1cccc3c1c2C(N)CC3.Cl` (single isomer, unassigned) [Example 2 (Isomer B)] registered an IC₅₀ of 12.40 ng/mL. On the same count and under the same terms, under `CC[C@@]1(O)C(=O)OCc2c1cc1n(c2=O)Cc2c-1nc1ccc(OC)c3c1c2C(N)CC3.Cl` (single isomer, unassigned) [Example 4 (Isomer B)] stands 27.80 ng/mL; under `CC[C@@]1(O)C(=O)OCc2c1cc1n(c2=O)Cc2c-1nc1ccc(OC)c3c1c2C(N)CC3.Cl` (single isomer, unassigned) [Example 4 (Isomer A)], 9.21 ng/mL. Same read-out and setting: under `CC[C@@]1(O)C(=O)OCc2c1cc1n(c2=O)Cc2c-1nc1ccc(OC)c3c1c2CCC3N.Cl` (single isomer, unassigned) [Example 7 (Isomer B)] stands 11.90 ng/mL. For the compound `CC[C@@]1(O)C(=O)OCc2c1cc1n(c2=O)Cc2c-1nc1cccc3c1c2C(N)CC3.Cl` (single isomer, unassigned) [Example 2 (Isomer A)], the IC₅₀ is 3.38 ng/mL.
